Several values for one entry are separate records, joined by “and”; a condition that tells them apart may be missing. Equal values may be shown once.
Experiments:
A549/ATCC = experiment: NCI-60 one-dose SRB screen (Non-Small Cell Lung Cancer); type: cell-based; details: Homo sapiens, single dose 10 µM, 48 h, read-out: Growth inhibition percent (GI %)
EKVX = experiment: as above; type: cell-based; details: Homo sapiens, single dose 10 µM, 48 h, read-out: Growth inhibition percent (GI %)
HOP-62 = experiment: as above; type: cell-based; details: Homo sapiens, single dose 10 µM, 48 h, read-out: Growth inhibition percent (GI %)
HOP-92 = experiment: as above; type: cell-based; details: Homo sapiens, single dose 10 µM, 48 h, read-out: Growth inhibition percent (GI %)
NCI-H226 = experiment: as above; type: cell-based; details: Homo sapiens, single dose 10 µM, 48 h, read-out: Growth inhibition percent (GI %)
NCI-H23 = experiment: as above; type: cell-based; details: Homo sapiens, single dose 10 µM, 48 h, read-out: Growth inhibition percent (GI %)
NCI-H322M = experiment: as above; type: cell-based; details: Homo sapiens, single dose 10 µM, 48 h, read-out: Growth inhibition percent (GI %)
NCI-H460 = experiment: as above; type: cell-based; details: Homo sapiens, single dose 10 µM, 48 h, read-out: Growth inhibition percent (GI %)
NCI-H522 = experiment: as above; type: cell-based; details: Homo sapiens, single dose 10 µM, 48 h, read-out: Growth inhibition percent (GI %)
COLO 205 = experiment: NCI-60 one-dose SRB screen (Colon Cancer); type: cell-based; details: Homo sapiens, single dose 10 µM, 48 h, read-out: Growth inhibition percent (GI %)
HCC-2998 = experiment: NCI-60 one-dose SRB screen (Colon Cancer); type: cell-based; details: Homo sapiens, single dose 10 µM, 48 h, read-out: Growth inhibition percent (GI %)
HCT-116 = experiment: NCI-60 one-dose SRB screen (Colon Cancer); type: cell-based; details: Homo sapiens, single dose 10 µM, 48 h, read-out: Growth inhibition percent (GI %)
HCT-15 = experiment: NCI-60 one-dose SRB screen (Colon Cancer); type: cell-based; details: Homo sapiens, single dose 10 µM, 48 h, read-out: Growth inhibition percent (GI %)
HT29 = experiment: NCI-60 one-dose SRB screen (Colon Cancer); type: cell-based; details: Homo sapiens, HT-29, single dose 10 µM, 48 h, read-out: Growth inhibition percent (GI %)
KM12 = experiment: NCI-60 one-dose SRB screen (Colon Cancer); type: cell-based; details: Homo sapiens, single dose 10 µM, 48 h, read-out: Growth inhibition percent (GI %)
SW-620 = experiment: NCI-60 one-dose SRB screen (Colon Cancer); type: cell-based; details: Homo sapiens, single dose 10 µM, 48 h, read-out: Growth inhibition percent (GI %)
SF-268 = experiment: NCI-60 one-dose SRB screen (CNS Cancer); type: cell-based; details: Homo sapiens, single dose 10 µM, 48 h, read-out: Growth inhibition percent (GI %)
SF-295 = experiment: NCI-60 one-dose SRB screen (CNS Cancer); type: cell-based; details: Homo sapiens, single dose 10 µM, 48 h, read-out: Growth inhibition percent (GI %)
SF-539 = experiment: NCI-60 one-dose SRB screen (CNS Cancer); type: cell-based; details: Homo sapiens, single dose 10 µM, 48 h, read-out: Growth inhibition percent (GI %)
SNB-19 = experiment: NCI-60 one-dose SRB screen (CNS Cancer); type: cell-based; details: Homo sapiens, single dose 10 µM, 48 h, read-out: Growth inhibition percent (GI %)
SNB-75 = experiment: NCI-60 one-dose SRB screen (CNS Cancer); type: cell-based; details: Homo sapiens, single dose 10 µM, 48 h, read-out: Growth inhibition percent (GI %)
U251 = experiment: NCI-60 one-dose SRB screen (CNS Cancer); type: cell-based; details: Homo sapiens, U-251, single dose 10 µM, 48 h, read-out: Growth inhibition percent (GI %)
LOX IMVI = experiment: NCI-60 one-dose SRB screen (Melanoma); type: cell-based; details: Homo sapiens, single dose 10 µM, 48 h, read-out: Growth inhibition percent (GI %)
M14 = experiment: NCI-60 one-dose SRB screen (Melanoma); type: cell-based; details: Homo sapiens, single dose 10 µM, 48 h, read-out: Growth inhibition percent (GI %)
MALME-3M = experiment: NCI-60 one-dose SRB screen (Melanoma); type: cell-based; details: Homo sapiens, single dose 10 µM, 48 h, read-out: Growth inhibition percent (GI %)
MDA-MB-435 = experiment: NCI-60 one-dose SRB screen (Melanoma); type: cell-based; details: Homo sapiens, single dose 10 µM, 48 h, read-out: Growth inhibition percent (GI %)
SK-MEL-28 = experiment: NCI-60 one-dose SRB screen (Melanoma); type: cell-based; details: Homo sapiens, single dose 10 µM, 48 h, read-out: Growth inhibition percent (GI %)
SK-MEL-2 = experiment: NCI-60 one-dose SRB screen (Melanoma); type: cell-based; details: Homo sapiens, single dose 10 µM, 48 h, read-out: Growth inhibition percent (GI %)
SK-MEL-5 = experiment: NCI-60 one-dose SRB screen (Melanoma); type: cell-based; details: Homo sapiens, single dose 10 µM, 48 h, read-out: Growth inhibition percent (GI %)
UACC-257 = experiment: NCI-60 one-dose SRB screen (Melanoma); type: cell-based; details: Homo sapiens, single dose 10 µM, 48 h, read-out: Growth inhibition percent (GI %)
IGROV1 = experiment: NCI-60 one-dose SRB screen (Ovarian cancer); type: cell-based; details: Homo sapiens, IGROV-1, single dose 10 µM, 48 h, read-out: Growth inhibition percent (GI %)
NCI/ADR-RES = experiment: NCI-60 one-dose SRB screen (Ovarian cancer); type: cell-based; details: Homo sapiens, single dose 10 µM, 48 h, read-out: Growth inhibition percent (GI %)
OVCAR-3 = experiment: NCI-60 one-dose SRB screen (Ovarian cancer); type: cell-based; details: Homo sapiens, single dose 10 µM, 48 h, read-out: Growth inhibition percent (GI %)
OVCAR-4 = experiment: NCI-60 one-dose SRB screen (Ovarian cancer); type: cell-based; details: Homo sapiens, single dose 10 µM, 48 h, read-out: Growth inhibition percent (GI %)
OVCAR-5 = experiment: NCI-60 one-dose SRB screen (Ovarian cancer); type: cell-based; details: Homo sapiens, single dose 10 µM, 48 h, read-out: Growth inhibition percent (GI %)
OVCAR-8 = experiment: NCI-60 one-dose SRB screen (Ovarian cancer); type: cell-based; details: Homo sapiens, single dose 10 µM, 48 h, read-out: Growth inhibition percent (GI %)
SK-OV-3 = experiment: NCI-60 one-dose SRB screen (Ovarian cancer); type: cell-based; details: Homo sapiens, single dose 10 µM, 48 h, read-out: Growth inhibition percent (GI %)
786-0 = experiment: NCI-60 one-dose SRB screen (Renal Cancer); type: cell-based; details: Homo sapiens, single dose 10 µM, 48 h, read-out: Growth inhibition percent (GI %)
A498 = experiment: NCI-60 one-dose SRB screen (Renal Cancer); type: cell-based; details: Homo sapiens, single dose 10 µM, 48 h, read-out: Growth inhibition percent (GI %)
ACHN = experiment: NCI-60 one-dose SRB screen (Renal Cancer); type: cell-based; details: Homo sapiens, single dose 10 µM, 48 h, read-out: Growth inhibition percent (GI %)
CAKI-1 = experiment: NCI-60 one-dose SRB screen (Renal Cancer); type: cell-based; details: Homo sapiens, single dose 10 µM, 48 h, read-out: Growth inhibition percent (GI %)
RXF 393 = experiment: NCI-60 one-dose SRB screen (Renal Cancer); type: cell-based; details: Homo sapiens, single dose 10 µM, 48 h, read-out: Growth inhibition percent (GI %)
SN12C = experiment: NCI-60 one-dose SRB screen (Renal Cancer); type: cell-based; details: Homo sapiens, single dose 10 µM, 48 h, read-out: Growth inhibition percent (GI %)
TK-10 = experiment: NCI-60 one-dose SRB screen (Renal Cancer); type: cell-based; details: Homo sapiens, single dose 10 µM, 48 h, read-out: Growth inhibition percent (GI %)
UO-31 = experiment: NCI-60 one-dose SRB screen (Renal Cancer); type: cell-based; details: Homo sapiens, single dose 10 µM, 48 h, read-out: Growth inhibition percent (GI %)
DU-145 = experiment: NCI-60 one-dose SRB screen (Prostate Cancer); type: cell-based; details: Homo sapiens, single dose 10 µM, 48 h, read-out: Growth inhibition percent (GI %)
PC-3 = experiment: NCI-60 one-dose SRB screen (Prostate Cancer); type: cell-based; details: Homo sapiens, single dose 10 µM, 48 h, read-out: Growth inhibition percent (GI %)
hCA XII = hCA XII (Homo sapiens, UniProt O43570); experiment: CA inhibitory activity, spectrophotometric p-NPA assay; type: biochemical; details: p-NPA substrate, pH 7.5, 25 °C, triplicate; read-out: IC50 (µM) ± SD hCA XII
Chain of hCA XII (O43570 25-354): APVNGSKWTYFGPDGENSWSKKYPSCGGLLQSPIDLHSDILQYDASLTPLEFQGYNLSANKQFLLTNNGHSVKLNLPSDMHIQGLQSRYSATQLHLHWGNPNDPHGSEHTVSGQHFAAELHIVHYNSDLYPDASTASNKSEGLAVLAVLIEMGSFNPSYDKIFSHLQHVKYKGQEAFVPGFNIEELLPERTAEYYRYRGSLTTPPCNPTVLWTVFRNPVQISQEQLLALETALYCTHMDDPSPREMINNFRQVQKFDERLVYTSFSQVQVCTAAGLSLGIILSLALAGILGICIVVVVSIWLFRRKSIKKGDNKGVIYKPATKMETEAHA

SMILES: CCOC(=O)c1ccc(NC(=O)COC(=O)c2cn(-c3ccc(S(N)(=O)=O)cc3)nc2-c2ccc(S(C)(=O)=O)cc2)cc1 [Compound 5e, 2-[(4-(Ethoxycarbonyl)phenyl)amino]-2-oxoethyl 3-(4-(methylsulfonyl)phenyl)-1-(4-sulfamoylphenyl)-1H-pyrazole-4-carboxylate]
- inhibition at 10 µM (A549/ATCC): < 5%
- inhibition at 10 µM (EKVX): < 5%
- inhibition at 10 µM (HOP-62): < 5%
- inhibition at 10 µM (HOP-92): < 5%
- inhibition at 10 µM (NCI-H226): < 5%
- inhibition at 10 µM (NCI-H23): 8.79%
- inhibition at 10 µM (NCI-H322M): < 5%
- inhibition at 10 µM (NCI-H460): < 5%
- inhibition at 10 µM (NCI-H522): 13.5%
- inhibition at 10 µM (COLO 205): < 5%
- inhibition at 10 µM (HCC-2998): < 5%
- inhibition at 10 µM (HCT-116): < 5%
- inhibition at 10 µM (HCT-15): < 5%
- inhibition at 10 µM (HT29): < 5%
- inhibition at 10 µM (KM12): < 5%
- inhibition at 10 µM (SW-620): < 5%
- inhibition at 10 µM (SF-268): 5.8%
- inhibition at 10 µM (SF-295): < 5%
- inhibition at 10 µM (SF-539): 11.8%
- inhibition at 10 µM (SNB-19): 8.29%
- inhibition at 10 µM (SNB-75): 19.6%
- inhibition at 10 µM (U251): 5.78%
- inhibition at 10 µM (LOX IMVI): 11.6%
- inhibition at 10 µM (M14): < 5%
- inhibition at 10 µM (MALME-3M): < 5%
- inhibition at 10 µM (MDA-MB-435): < 5%
- inhibition at 10 µM (SK-MEL-28): < 5%
- inhibition at 10 µM (SK-MEL-2): < 5%
- inhibition at 10 µM (SK-MEL-5): < 5%
- inhibition at 10 µM (UACC-257): < 5%
- inhibition at 10 µM (IGROV1): < 5%
- inhibition at 10 µM (NCI/ADR-RES): < 5%
- inhibition at 10 µM (OVCAR-3): < 5%
- inhibition at 10 µM (OVCAR-4): 12.3%
- inhibition at 10 µM (OVCAR-5): 7.15%
- inhibition at 10 µM (OVCAR-8): < 5%
- inhibition at 10 µM (SK-OV-3): < 5%
- inhibition at 10 µM (786-0): 13.2%
- inhibition at 10 µM (A498): 19.7%
- inhibition at 10 µM (ACHN): 8.32%
- inhibition at 10 µM (CAKI-1): 30.8%
- inhibition at 10 µM (RXF 393): < 5%
- inhibition at 10 µM (SN12C): 7.85%
- inhibition at 10 µM (TK-10): < 5%
- inhibition at 10 µM (UO-31): 21.9%
- inhibition at 10 µM (DU-145): < 5%
- inhibition at 10 µM (PC-3): < 5%
- IC50 (hCA XII): 0.16 µM and 0.167 µM
